From patent US9296725B2, “Heterocyclyl pyrimidine analogues as TYK2 inhibitors” (Cellzome Limited, priority 2012, dated 2016)

Assays:
TYK2 = biological target: T1, TYK2 (Homo sapiens, UniProt P29597); experiment: Kinobeads assay, TYK2 (competition binding in mixed Molt4/Ramos cell lysate, dot blot detection); conditions: Kinobeads assay, Molt4/Ramos lysate; read-out: TYK2 Band (Kinobeads assay potency, IC50)
T1 construct: endogenous in cells; host or cells: Molt4 (ATCC CRL-1582) and Ramos (ATCC CRL-1596), mixed lysate 1:2
T1 sequence (P29597 whole entry): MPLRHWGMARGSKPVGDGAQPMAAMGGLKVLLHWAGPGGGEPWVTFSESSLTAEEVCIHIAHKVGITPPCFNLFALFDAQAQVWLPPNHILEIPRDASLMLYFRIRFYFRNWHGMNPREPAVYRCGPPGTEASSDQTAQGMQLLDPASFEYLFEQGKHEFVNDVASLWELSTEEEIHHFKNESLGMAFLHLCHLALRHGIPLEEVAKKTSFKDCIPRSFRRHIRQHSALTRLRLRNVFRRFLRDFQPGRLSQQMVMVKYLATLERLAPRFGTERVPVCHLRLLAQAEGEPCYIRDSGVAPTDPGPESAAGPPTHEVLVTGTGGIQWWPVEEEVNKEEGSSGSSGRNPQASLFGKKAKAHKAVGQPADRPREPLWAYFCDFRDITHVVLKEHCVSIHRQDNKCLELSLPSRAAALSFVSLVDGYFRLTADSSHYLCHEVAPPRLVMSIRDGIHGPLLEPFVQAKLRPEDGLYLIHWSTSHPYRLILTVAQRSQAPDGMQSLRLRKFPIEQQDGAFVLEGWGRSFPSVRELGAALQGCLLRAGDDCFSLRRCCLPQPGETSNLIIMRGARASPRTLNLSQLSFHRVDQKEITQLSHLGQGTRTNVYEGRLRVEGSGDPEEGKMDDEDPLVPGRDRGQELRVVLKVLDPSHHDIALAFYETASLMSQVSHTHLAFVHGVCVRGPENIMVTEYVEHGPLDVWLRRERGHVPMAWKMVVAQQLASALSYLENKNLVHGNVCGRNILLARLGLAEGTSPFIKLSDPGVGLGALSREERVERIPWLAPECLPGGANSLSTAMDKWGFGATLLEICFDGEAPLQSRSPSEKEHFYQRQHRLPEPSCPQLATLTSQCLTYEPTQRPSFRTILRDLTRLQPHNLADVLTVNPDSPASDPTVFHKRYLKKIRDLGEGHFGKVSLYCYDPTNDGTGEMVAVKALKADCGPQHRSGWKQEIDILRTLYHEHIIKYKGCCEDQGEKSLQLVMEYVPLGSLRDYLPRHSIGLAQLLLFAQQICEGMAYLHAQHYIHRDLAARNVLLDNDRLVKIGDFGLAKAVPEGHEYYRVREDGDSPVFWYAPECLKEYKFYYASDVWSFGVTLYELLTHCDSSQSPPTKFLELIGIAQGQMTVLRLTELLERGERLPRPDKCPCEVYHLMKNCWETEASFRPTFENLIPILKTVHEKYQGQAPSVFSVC
Outline: (§1)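 JAK2 and TYK2 retained on Kinobeads (immobilized aminopyrido-pyrimidine ligand) from 1:2 Molt4:Ramos lysate (10 mg/mL) were quantified by antibody dot blot (Odyssey infrared) after 3 h cold incubation with compound. Nine-step 1:3 dilution series; IC50 calculated from curves.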

JAK2 = biological target: T2, JAK2 (Homo sapiens, UniProt O60674); experiment: Kinobeads assay, JAK2 (competition binding in mixed Molt4/Ramos cell lysate, dot blot detection); conditions: read-out: JAK2 Band (Kinobeads assay potency, IC50)
T2 construct: endogenous in cells; host or cells: Molt4 (ATCC CRL-1582) and Ramos (ATCC CRL-1596), mixed lysate 1:2
T2 sequence (O60674 whole entry): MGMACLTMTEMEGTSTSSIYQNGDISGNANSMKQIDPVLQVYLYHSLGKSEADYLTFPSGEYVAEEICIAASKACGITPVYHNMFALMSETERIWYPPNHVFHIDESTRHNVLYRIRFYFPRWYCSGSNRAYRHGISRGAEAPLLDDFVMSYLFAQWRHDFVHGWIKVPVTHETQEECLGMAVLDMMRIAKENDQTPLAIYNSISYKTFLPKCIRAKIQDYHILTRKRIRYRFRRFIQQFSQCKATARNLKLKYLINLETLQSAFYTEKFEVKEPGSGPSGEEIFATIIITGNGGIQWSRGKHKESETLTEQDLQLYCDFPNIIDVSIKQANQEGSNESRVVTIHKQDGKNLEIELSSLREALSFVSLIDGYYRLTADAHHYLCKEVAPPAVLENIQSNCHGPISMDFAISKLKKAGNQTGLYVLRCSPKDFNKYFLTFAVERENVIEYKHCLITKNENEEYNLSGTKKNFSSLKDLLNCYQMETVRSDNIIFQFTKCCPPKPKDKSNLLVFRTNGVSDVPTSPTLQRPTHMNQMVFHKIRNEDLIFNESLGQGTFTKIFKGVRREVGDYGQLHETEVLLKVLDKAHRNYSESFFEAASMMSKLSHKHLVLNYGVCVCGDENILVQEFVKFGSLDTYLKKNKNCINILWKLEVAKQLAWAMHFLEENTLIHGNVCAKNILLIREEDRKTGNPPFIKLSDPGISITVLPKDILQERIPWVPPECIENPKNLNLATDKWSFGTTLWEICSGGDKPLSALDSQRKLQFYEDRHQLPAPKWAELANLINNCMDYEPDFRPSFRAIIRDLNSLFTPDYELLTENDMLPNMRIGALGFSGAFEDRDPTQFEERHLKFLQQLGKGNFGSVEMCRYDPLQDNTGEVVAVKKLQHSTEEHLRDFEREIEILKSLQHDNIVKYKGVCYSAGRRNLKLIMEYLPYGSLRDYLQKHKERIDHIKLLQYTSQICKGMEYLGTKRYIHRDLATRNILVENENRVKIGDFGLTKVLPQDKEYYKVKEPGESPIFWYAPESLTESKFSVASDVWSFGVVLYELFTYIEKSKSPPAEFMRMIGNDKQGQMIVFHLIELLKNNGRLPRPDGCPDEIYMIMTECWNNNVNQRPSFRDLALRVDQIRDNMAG
Outline: as §1

Row | IC50 (TYK2) [µM] | IC50 (JAK2) [µM] | SMILES
1 | 1 to 10 | 1 to 10 | Cc1cnc(Nc2cnn(CC(F)F)c2)nc1NCc1cccc(F)c1F [Example I-347]
2 | 0.1 to 1 | 1 to 10 | Cc1cnc(Nc2cnn(CC(F)(F)F)c2)nc1NCc1cc(F)ccc1F [Example I-353]
3 | 0.1 to 1 | 0.1 to 1 | CNC(=O)Cn1cc(Nc2ncc(Cl)c(NCc3ccccc3S(=O)(=O)NC)n2)cn1 [Example I-355]
4 | 0.1 to 1 | 0.1 to 1 | CNC(=O)Cn1cc(Nc2ncc(Cl)c(NCc3ccccc3S(=O)(=O)N(C)C)n2)cn1 [Example I-356]
5 | 0.1 to 1 | 1 to 10 | OCCn1cc(Nc2ncc(Cl)c(NCc3ccccc3CO)n2)cn1 [Example I-357]
6 | 0.01 to 0.1 | 0.1 to 1 | CCOc1ccc(F)c(CNc2nc(Nc3cnn(CCO)c3)ncc2Cl)c1F [Example I-358]
7 | 0.1 to 1 | 0.1 to 1 | CC(CO)n1cc(Nc2ncc(Cl)c(NCc3ccccc3)n2)cn1 (stereo not shown) [Example I-361]
8 | 0.1 to 1 | 1 to 10 | N#CCOc1cccc(CNc2nc(Nc3cnn(CC(N)=O)c3)ncc2Cl)c1 [Example I-362]
9 | 0.1 to 1 | 1 to 10 | CS(=O)(=O)c1cccc(CNc2nc(Nc3cnn(CCO)c3)ncc2Cl)c1 [Example I-363]
10 | 0.01 to 0.1 | 1 to 10 | CCOc1ccc(F)c(CNc2nc(Nc3cn[nH]c3)ncc2Cl)c1F [Example I-368]
11 | 0.1 to 1 | 0.1 to 1 | Fc1ccccc1CNc1nc(Nc2cn[nH]c2)ncc1Cl [Example I-369]
12 | 0.1 to 1 | 0.1 to 1 | Fc1cccc(CNc2nc(Nc3cn[nH]c3)ncc2Cl)c1 [Example I-370]
13 | 0.01 to 0.1 | 1 to 10 | Cc1ccc(F)c(CNc2nc(Nc3cn[nH]c3)ncc2Cl)c1F [Example I-371]
14 | 0.01 to 0.1 | 1 to 10 | Fc1cc(F)c(CNc2nc(Nc3cn[nH]c3)ncc2Cl)c(F)c1 [Example I-372]
15 | ≤ 0.01 | 0.01 to 0.1 | OCCn1cc(Nc2ncc(Cl)c(NCc3c(F)ccc(F)c3F)n2)cn1 [Example I-373]
16 | 0.01 to 0.1 | 0.1 to 1 | COc1ccc(F)c(CNc2nc(Nc3cnn(CC(N)=O)c3)ncc2Cl)c1F [Example I-375]
17 | 0.01 to 0.1 | 1 to 10 | Cn1cc(Nc2ncc(Cl)c(NCc3c(F)cc(F)cc3F)n2)cn1 [Example I-385]

More lines, now with the values behind:

Row | SMILES | IC50 (TYK2) [µM] | IC50 (JAK2) [µM]
18 | Cc1cnc(Nc2cnn(CC(=O)N3CCOCC3)c2)nc1NCc1cc(F)cc(F)c1 [Example I-348] | 0.01 to 0.1 | 0.01 to 0.1
19 | Cc1cnc(Nc2cnn(CC(F)(F)F)c2)nc1NCc1cc(F)cc(F)c1 [Example I-350] | 1 to 10 | 1 to 10
20 | Cc1cnc(Nc2cnn(CC(F)(F)F)c2)nc1NCc1cc(F)cc(F)c1F [Example I-351] | 1 to 10 | 1 to 10
21 | COc1c(F)cc(F)cc1CNc1nc(Nc2cnn(CC(F)(F)F)c2)ncc1C [Example I-352] | 1 to 10 | 1 to 10
22 | CNC(=O)Cn1cc(Nc2ncc(C)c(NCc3cc(F)cc(F)c3)n2)cn1 [Example I-354] | 0.1 to 1 | 0.1 to 1
23 | CN(C)C(=O)Cn1cc(Nc2ncc(Cl)c(NCc3c(F)ccc(F)c3F)n2)cn1 [Example I-360] | ≤ 0.01 | 0.1 to 1
24 | CNC(=O)Cn1cc(Nc2ncc(Cl)c(NCc3cccc(OCC#N)c3)n2)cn1 [Example I-364] | 0.1 to 1 | 1 to 10
25 | CN(C)C(=O)Cn1cc(Nc2ncc(Cl)c(NCc3cccc(OCC#N)c3)n2)cn1 [Example I-365] | 0.01 to 0.1 | 1 to 10
26 | N#CCOc1cccc(CNc2nc(Nc3cnn(CC(=O)N4CCOCC4)c3)ncc2Cl)c1 [Example I-366] | 0.01 to 0.1 | 1 to 10
27 | CN(C)CCNC(=O)Cn1cc(Nc2ncc(Cl)c(NCc3cccc(OCC#N)c3)n2)cn1 [Example I-367] | 0.1 to 1 | 1 to 10
28 | Cn1cc(Nc2ncc(F)c(NCc3c(F)cc(F)cc3F)n2)cn1 [Example I-374] | 0.01 to 0.1 | 1 to 10
29 | COc1ccc(F)c(CNc2nc(Nc3cnn(CC(=O)N(C)C)c3)ncc2Cl)c1F [Example I-376] | 0.01 to 0.1 | 0.1 to 1
30 | COc1ccc(F)c(CNc2nc(Nc3cnn(CC(=O)N4CCOCC4)c3)ncc2Cl)c1F [Example I-377] | 0.01 to 0.1 | 0.1 to 1
31 | Cc1cnc(Nc2cnn(CC(=O)N3CCOCC3)c2)nc1NCc1c(F)cc(S(N)(=O)=O)cc1F [Example I-378] | ≤ 0.01 | 0.1 to 1
32 | Cn1cc(Nc2ncc(F)c(NCc3c(F)cc(S(N)(=O)=O)cc3F)n2)cn1 [Example I-379] | 0.01 to 0.1 | 1 to 10
33 | NC(=O)Cn1cc(Nc2ncc(F)c(NCc3c(F)cccc3F)n2)cn1 [Example I-380] | 0.01 to 0.1 | 1 to 10
34 | CNC(=O)Cn1cc(Nc2ncc(F)c(NCc3c(F)cccc3F)n2)cn1 [Example I-381] | 0.01 to 0.1 | 1 to 10

Row | SMILES | IC50 (TYK2) [µM] | IC50 (JAK2) [µM]
35 | CN(C)C(=O)Cn1cc(Nc2ncc(F)c(NCc3c(F)cccc3F)n2)cn1 [Example I-382] | 0.01 to 0.1 | 1 to 10
36 | COc1ccc(F)c(CNc2nc(Nc3cnn(C)c3)ncc2F)c1F [Example I-383] | 0.01 to 0.1 | 1 to 10
37 | COc1ccc(F)c(CNc2nc(Nc3cnn(CC(N)=O)c3)ncc2F)c1F [Example I-384] | 0.01 to 0.1 | 1 to 10
38 | NC(=O)Cn1cc(Nc2ncc(Cl)c(NCc3c(F)cc(F)cc3F)n2)cn1 [Example I-387] | 0.01 to 0.1 | 1 to 10
39 | CNC(=O)Cn1cc(Nc2ncc(Cl)c(NCc3c(F)cc(F)cc3F)n2)cn1 [Example I-388] | 0.01 to 0.1 | 1 to 10
40 | CN(C)C(=O)Cn1cc(Nc2ncc(Cl)c(NCc3cccc(C(N)=O)c3)n2)cn1 [Example I-390] | 0.1 to 1 | 1 to 10
41 | CC(C)NC(=O)Cn1cc(Nc2ncc(Cl)c(NCc3cccc(OC(F)F)c3)n2)cn1 [Example I-391] | 0.01 to 0.1 | 1 to 10
42 | CC(C)CNC(=O)Cn1cc(Nc2ncc(Cl)c(NCc3cccc(OC(F)F)c3)n2)cn1 [Example I-392] | 0.01 to 0.1 | 1 to 10
43 | CC(C)NC(=O)Cn1cc(Nc2ncc(Cl)c(NCc3c(F)cc(F)cc3F)n2)cn1 [Example I-393] | 0.01 to 0.1 | > 10
44 | COc1ccc(F)c(CNc2nc(Nc3cnn(CCOC(C)C)c3)ncc2F)c1F [Example I-394] | 0.1 to 1 | > 10
45 | CS(=O)(=O)NCc1cccc(CNc2nc(Nc3cnn(CC(=O)N4CCOCC4)c3)ncc2Cl)c1 [Example I-396] | 0.01 to 0.1 | 1 to 10
46 | CS(=O)(=O)NCc1cccc(CNc2nc(Nc3cnn(CC(N)=O)c3)ncc2Cl)c1 [Example I-397] | 0.1 to 1 | 1 to 10
47 | CN(Cc1cccc(CNc2nc(Nc3cnn(CCO)c3)ncc2Cl)c1)S(C)(=O)=O [Example I-398] | 0.1 to 1 | 1 to 10
48 | CS(=O)(=O)NCc1cccc(CNc2nc(Nc3cnn(CC(=O)N4CCC[C@@H]4C#N)c3)ncc2Cl)c1 [Example I-399] | 0.1 to 1 | 1 to 10
49 | CS(=O)(=O)NCc1cccc(CNc2nc(Nc3cnn(CC(=O)N4CCC[C@H]4C#N)c3)ncc2Cl)c1 [Example I-400] | 0.1 to 1 | 1 to 10
50 | CN(Cc1cccc(CNc2nc(Nc3cnn(CC(=O)N4CCOCC4)c3)ncc2Cl)c1)S(C)(=O)=O [Example I-401] | 0.1 to 1 | 1 to 10
